Assay results from paper PMC8514817, “De Novo Design of Antimicrobial Peptides With a Special Charge Pattern and Their Application in Combating Plant Pathogens” (Frontiers in Plant Science, 2021).
Converted amounts (≈) assume the structure as drawn. Where two headings read alike, the source gives them in different places. Where a SMILES comes first, the peptide text is derived from it. The star is where a group is joined. Palmitoyl = CCCCCCCCCCCCCCCC(=O)*; Myristoyl = CCCCCCCCCCCCCC(=O)*

How the values were obtained:
Cgl FST02 = settings: for MIC: spores, 96 h; for MIC / MBC/MFC / MFC: up to 32 μg/ml; for MBC/MFC / MFC: spotted on PD plate 24~72 h
Pcc = settings: up to 32 μg/ml
Rs Pss190 = settings: Table 5, minimal medium, crude peptides, up to 32 μg/ml; for MIC: 96 h; for MBC/MFC: spotted on rich agar 48 h
Bc = settings: for MIC: spores, 96 h; for MIC / MBC/MFC / MFC: up to 32 μg/ml; for MBC/MFC / MFC: spotted on PD plate 24~72 h
Botrytis cinerea (Bc) [1] = assay: Plant disease response, Bc infection of Arabidopsis Col0 leaves; type: in vivo, Arabidopsis thaliana; settings: crude peptide 16 μg/ml mixed with Bc spores (10^5 spores/ml), Arabidopsis Col0 leaves, 47–70 h post-inoculation, vs water
Eco = type: cell-based, Escherichia coli
Rs Pss4 = settings: Table 5, minimal medium, crude peptides, up to 32 μg/ml; for MIC: 96 h; for MBC/MFC: spotted on rich agar 48 h
Botrytis cinerea (Bc) [2] = assay: Plant disease response, Bc infection of tomato L390 leaves; type: in vivo, Solanum lycopersicum; settings: crude peptide 16 μg/ml mixed with Bc spores (10^4 spores/ml), 47–70 h post-inoculation, vs water
[3] = test system: Pectobacterium carotovorum subsp. carotovorum (Pcc); assay: Plant disease response, Pcc infection of Arabidopsis Col0 leaves; type: in vivo, Arabidopsis thaliana; settings: crude peptide 16 μg/ml mixed with Pcc, wounded leaves of Arabidopsis Col0, 16–28 h post-inoculation, vs water
Ech = settings: up to 32 μg/ml
Rs = type: cell-based, Ralstonia solanacearum; settings: crude peptide, 5 μl of 64 μg/ml in 20 μl, bacteria OD600=0.4 in water, 2 h, confocal microscopy
[4] = test system: Pectobacterium carotovorum subsp. carotovorum (Pcc); assay: Plant disease response, Pcc infection of tomato L390 leaves; type: in vivo, Solanum lycopersicum; settings: crude peptide 16 μg/ml mixed with Pcc, detached wounded tomato L390 leaves, 16–28 h post-inoculation, vs water
Eco DH5α [5] = settings: 48 h
Xoo Xoo28 = settings: Table 4, rich medium, up to 32 μg/ml
Pss B728a = settings: Table 4, rich medium, up to 32 μg/ml
Pst DC3000 = settings: Table 4, rich medium, up to 32 μg/ml
Xev Xvt28 [6] = settings: 48 h
[7] = test system: Ralstonia solanacearum (Rs); type: cell-based; settings: at the highest peptide concentration (32μg/ml) tested; data not shown; before the tests in minimal media
Xev Xvt28 [8] = settings: 24 h
Eco DH5α [9] = settings: DH5α, 24 h
[10] = Table 5, minimal (CD) medium, crude peptides
[11] = Table 5, minimal medium, crude peptides, 96 h
[12] = Table 5, minimal medium, crude peptides, spotted on rich agar 48 h
[13] = at the highest peptide concentration (32μg/ml) tested, data not shown, before the tests in minimal media
[14] = spotted on rich agar 48 h, no colony
[15] = Table 7, rich media, spotted on rich agar 48 h

| Molecule | MIC (Cgl FST02; [10]) | MBC/MFC (Cgl FST02; [10]) | MIC (Cgl FST02; Table 6, minimal media) | MFC (Cgl FST02; Table 6, minimal media) | MIC (Pcc; [11]) | MBC/MFC (Pcc; [12]) | MIC (Rs Pss190) | MBC/MFC (Rs Pss190) | MIC (Bc; [10]) | MBC/MFC (Bc; [10]) | MIC (Bc; Table 6, minimal media) | MFC (Bc; Table 6, minimal media) | development of the lesion caused by Bc, Arabidopsis (Botrytis cinerea (Bc) [1]) | MIC (Rs Pss4) | MBC/MFC (Rs Pss4) | development of the lesion caused by Bc, tomato (Botrytis cinerea (Bc) [2]) | size of disease lesions caused by Pcc, Arabidopsis [3] | MIC (Ech; [11]) | size of disease lesions caused by Pcc, tomato [4] | MBC (Eco DH5α [5]) | further results |
| --- | --- | --- | --- | --- | --- | --- | --- | --- | --- | --- | --- | --- | --- | --- | --- | --- | --- | --- | --- | --- | --- |
| CCCCCCCCCCCCCC(=O)N[C@@H](Cc1c[nH]c2ccccc12)C(=O)N[C@@H](CCCCN)C(=O)N[C@@H](CCCCN)C(=O)N[C@@H](CC(C)C)C(=O)N[C@@H](CCCCN)C(=O)N[C@@H](CCCCN)C(=O)N[C@@H](CC(C)C)C(=O)N[C@@H](CC(C)C)C(=O)N[C@@H](CCCCN)C(=O)N[C@@H](CCCCN)C(=O)N[C@@H](CC(C)C)C(=O)N[C@@H](CCCCN)C(=O)N[C@@H](CCCCN)C(=O)N[C@@H](CC(C)C)C(N)=O [pepD2M] (Myristoyl-WKKLKKLLKKLKKL-NH2) | 8 µg/mL (≈ 3.99 µM) | 16 µg/mL (≈ 7.98 µM) | 16 µg/mL (≈ 7.98 µM) | 16 µg/mL (≈ 7.98 µM) | 4 µg/mL (≈ 2 µM) | 4 µg/mL (≈ 2 µM) | 8 µg/mL (≈ 3.99 µM) | 8 µg/mL (≈ 3.99 µM) | 16 µg/mL (≈ 7.98 µM) | 16 µg/mL (≈ 7.98 µM) | 16 µg/mL (≈ 7.98 µM) | 32 µg/mL (≈ 16 µM) | decreased the development of the lesion | 8 µg/mL (≈ 3.99 µM) | 8 µg/mL (≈ 3.99 µM) | decreased the development of the lesion | significantly reduced the sizes of the disease lesions | 4 µg/mL (≈ 2 µM) | significantly reduced the sizes of the disease lesions |  | membranolytic effect (SYTOX Green staining) (Eco): significant membranolytic effect; MBC/MFC (Ech; [12]): 8 µg/mL (≈ 3.99 µM); membranolytic effect (SYTOX Green staining) (Rs): significant membranolytic effect |
| CCCCCCCCCCCCCCCC(=O)N[C@@H](Cc1c[nH]c2ccccc12)C(=O)N[C@@H](CCCCN)C(=O)N[C@@H](CCCCN)C(=O)N[C@@H](CC(C)C)C(=O)N[C@@H](CCCCN)C(=O)N[C@@H](CCCCN)C(=O)N[C@@H](CC(C)C)C(=O)N[C@@H](CC(C)C)C(=O)N[C@@H](CCCCN)C(=O)N[C@@H](CCCCN)C(=O)N[C@@H](CC(C)C)C(=O)N[C@@H](CCCCN)C(=O)N[C@@H](CCCCN)C(=O)N[C@@H](CC(C)C)C(N)=O [pepD2P] (Palmitoyl-WKKLKKLLKKLKKL-NH2) |  |  | 8 µg/mL (≈ 3.94 µM) | 8 µg/mL (≈ 3.94 µM) |  |  |  |  |  |  | 8 µg/mL (≈ 3.94 µM) | 8 µg/mL (≈ 3.94 µM) |  |  |  |  |  |  |  |  |  |
| CCCCCCCCCCCCCC(=O)N[C@@H](Cc1c[nH]c2ccccc12)C(=O)N[C@@H](CCCCN)C(=O)N[C@@H](CCCCN)C(=O)N[C@@H](CC(C)C)C(=O)N[C@@H](CCCCN)C(=O)N[C@@H](CCCCN)C(=O)N[C@@H](CC(C)C)C(=O)N[C@@H](CC(C)C)C(=O)N[C@@H](CCCCN)C(=O)N[C@@H](CCCCN)C(=O)N[C@@H](CC(C)C)C(N)=O [pepD3M] (Myristoyl-WKKLKKLLKKL-NH2) | 8 µg/mL (≈ 4.89 µM) | 8 µg/mL (≈ 4.89 µM) |  |  | 4 µg/mL (≈ 2.45 µM) | 4 µg/mL (≈ 2.45 µM) | 16 µg/mL (≈ 9.78 µM) | 16 µg/mL (≈ 9.78 µM) | 4 µg/mL (≈ 2.45 µM) | 8 µg/mL (≈ 4.89 µM) |  |  | decreased the development of the lesion | 8 µg/mL (≈ 4.89 µM) | 16 µg/mL (≈ 9.78 µM) | decreased the development of the lesion | significantly reduced the sizes of the disease lesions | 4 µg/mL (≈ 2.45 µM) | significantly reduced the sizes of the disease lesions |  | MBC/MFC (Ech; [12]): 8 µg/mL (≈ 4.89 µM) |
| Ac-WKKIKKIIKKIKKI-NH2 [pepI2] |  |  |  |  |  |  |  |  |  |  |  |  |  |  |  |  |  |  |  | 4 µg/mL | MIC (Eco DH5α [5]): 4 µg/mL |
| Ac-WKKLKKLLKKL-NH2 [pepD3] | – (“–” indicates that no antimicrobial activity was detected in minimal media at the highest concentration (32μg/ml) of crude peptides that was tested in this study.) | – (“–” indicates that no antimicrobial activity was detected in minimal media at the highest concentration (32μg/ml) of crude peptides that was tested in this study.) |  |  | 8 µg/mL | 16 µg/mL | – (“–” indicates that no antimicrobial activity was detected in minimal media at the highest concentration (32μg/ml) of crude peptides that was tested in this study.) | – (“–” indicates that no antimicrobial activity was detected in minimal media at the highest concentration (32μg/ml) of crude peptides that was tested in this study.) | – (“–” indicates that no antimicrobial activity was detected in minimal media at the highest concentration (32μg/ml) of crude peptides that was tested in this study.) | – (“–” indicates that no antimicrobial activity was detected in minimal media at the highest concentration (32μg/ml) of crude peptides that was tested in this study.) |  |  | did not detectably inhibit the diseases | – (“–” indicates that no antimicrobial activity was detected in minimal media at the highest concentration (32μg/ml) of crude peptides that was tested in this study.) | – (“–” indicates that no antimicrobial activity was detected in minimal media at the highest concentration (32μg/ml) of crude peptides that was tested in this study.) | did not detectably inhibit the diseases | did not detectably inhibit the diseases | 32 µg/mL | did not detectably inhibit the diseases | 16 µg/mL | antimicrobial activity (Cgl FST02; [13]): did not have detectable antimicrobial activity; MIC (Xoo Xoo28; 48 h, no visible growth): 4 µg/mL; MBC (Xoo Xoo28; [14]): 4 µg/mL; MIC (Pcc; Table 4, rich medium, 48 h, no visible growth): 8 µg/mL; antimicrobial activity (Bc; [13]): did not have detectable antimicrobial activity; membranolytic effect (SYTOX Green staining) (Eco): significant membranolytic effect; MIC (Pss B728a; 48 h, no visible growth): 8 µg/mL; MBC (Pss B728a; [14]): 16 µg/mL; MIC (Pst DC3000; 48 h, no visible growth): 8 µg/mL; MBC (Pst DC3000; [14]): 16 µg/mL; MBC (Xev Xvt28 [6]): 4 µg/mL; MIC (Xev Xvt28 [6]): 4 µg/mL; membranolytic effect (SYTOX Green staining) (Rs): significant membranolytic effect; MIC (Eco DH5α [5]): 8 µg/mL; antimicrobial activity [7]: did not have detectable antimicrobial activity |
| Ac-WKKVKKVVKKVKKV-NH2 [pepV2] |  |  |  |  |  |  |  |  |  |  |  |  |  |  |  |  |  |  |  | 32 µg/mL | MIC (Pcc; Table 7, rich media, 48 h): – (“–” indicates that no antimicrobial activity was detected in rich media at the highest peptide concentration (32μg/ml) that was tested in this study.); MBC (Pcc; [15]): – (“–” indicates that no antimicrobial activity was detected in rich media at the highest peptide concentration (32μg/ml) that was tested in this study.); MIC (Ech; Table 7, rich media, 48 h): – (“–” indicates that no antimicrobial activity was detected in rich media at the highest peptide concentration (32μg/ml) that was tested in this study.); MBC (Ech; [15]): – (“–” indicates that no antimicrobial activity was detected in rich media at the highest peptide concentration (32μg/ml) that was tested in this study.); MIC (Eco DH5α [5]): 32 µg/mL |
| Ac-WKLKLKLKLKLKLKLKLK-NH2 [pepE] |  |  |  |  |  |  |  |  |  |  |  |  |  |  |  |  |  |  |  |  | IC50 (Xev Xvt28 [8]): 2 µg/mL; IC50 (Eco DH5α [9]): 10 µg/mL |
| Ac-WKLLKKLLKKLKKLLKKL-NH2 [pepC] |  |  |  |  |  |  |  |  |  |  |  |  |  |  |  |  |  |  |  |  | IC50 (Xev Xvt28 [8]): 10 µg/mL; IC50 (Eco DH5α [9]): 10 µg/mL |
| Stearyl-WKKLKKLLKKLKKL-NH2 [pepD2S] |  |  | – (“–” indicates that no antimicrobial activity was detected in minimal media at the highest peptide concentration (32μg/ml) that was tested in this study.) | – (“–” indicates that no antimicrobial activity was detected in minimal media at the highest peptide concentration (32μg/ml) that was tested in this study.) |  |  |  |  |  |  | – (“–” indicates that no antimicrobial activity was detected in minimal media at the highest peptide concentration (32μg/ml) that was tested in this study.) | – (“–” indicates that no antimicrobial activity was detected in minimal media at the highest peptide concentration (32μg/ml) that was tested in this study.) |  |  |  |  |  |  |  |  |  |
